The values below come from patent US8101792B2, “Compounds isolated from Antrodia cinnamomea and use thereof” (Simpson Biotech Co., Ltd., priority 2007, dated 2012).

Data set [1] is described as follows: Identification of metabolites in rat feces, bile, plasma and urine by LC/MS-MS after administration of Antrodin C. Format: in vivo. The procedure:
The metabolites in feces, bile and plasma were analyzed by LC/MS-MS. The LC/MS-MS equipment comprised a column containing TSK gel ODS-80 Ts (particle size, 5 μm; 4.6×150 mm i.d., Tosoh Co., Tokyo, Japan). Samples were eluted through the column with 0.1% AcOH and acetonitrile (35:65) at a flow rate of 1 ml/min at 30° C. The standard negative ion mode was selected under the following conditions: full scan range, 50-800 m/z; scan resolution, 13000 m/z/sec; nebulizer, 50.0 psi; dry gas, 10.0 l/min; dry temperature, 360° C. Full scanning in the region of m/z 50 to 600 assigned several peaks to Antrodin C and the metabolites in the […] when compared with those of blank samples (FIG. 3). […] Comparing to standard materials and synthesized compounds, the peak in the MS profile at m/z 328 [M-H]^− with retention time (tR)=8.2 min was derived from Antrodin C (MW 329), and M1 (m/z 331 [M-H]^−, tR=4.4 min) was dicarboxylic acid by hydrolysis of Antrodin C; M2 and M3 (m/z 345 [M-H]^−, tR=7.7 and 8.4 min), which were 14 larger than those of M1, were two kinds of monomethyl esters of M1; M4 (m/z 313 [M-H]^−, tR=21.6 min) was Antrodin A and M5 (m/z 312 [M-H]^−, tR=11.5 min) was Antrodin B. The structures of Antrodin C and its metabolites were shown in FIG. 5.

The nature of data set [2]: Pharmacokinetics of M1 in rat bile after P.O. and I.V. administration of Antrodin C (PAD-HPLC). The conditions noted are these: for Accumulated excretion ratio: rat bile.
Protocol: (§1) Male Wistar rats (9 weeks old) purchased from SLC Co. (Hamamastu, Japan), were fed with standard laboratory chow for one week, fasted overnight and given free access to water before drug administration. […] The animals were light anesthetized with diethyl ether during surgical procedures. Bile samples (n=5) was collected by cannulating a polyethylene tube (PE-10) into the rat bile duct at intervals of 0, 0.25, 0.5, 1, 2, 4, 8, 12, 24, 36 and 48 h after oral (50 mg/kg) and intravenous (10 mg/kg) administration of Antrodin C. […] The blood samples were centrifuged at 8000×g for 15 min to separate the plasma, and then all samples were stored at −20° C. for later analysis.
(§2) Thawed urine and bile samples (0.5 ml) dissolved in 3 volumes of acetonitrile, and then centrifuged at 8000×g for 15 min. The supernatant was passed through a 0.45 μm Millipore syringe filter (Nihon Millipore, Tokyo, Japan) for LC/MS-MS analysis. […] After treating the bile sample as described above, the amount of M1 was calculated by PAD-HPLC.
(§3) The concentration-time data in rat bile (n=5) were computer fitted using a program of Pharmacokineitics 3p97 edited by the Mathematics Pharmacological Committee, Chinese Pharmacological Society. The following pharmacokinetic parameters were obtained: half-time of absorption phase (t1/2 (Kα)) and half-time of elimination phase (t1/2 (Kβ)) in the bile samples after oral administration of Antrodin C at the dose of 50 mg/kg. The area under the concentration-time curve (AUC(i.v.) and AUC(p.o.)) was calculated by the statistical moment method of non-compartmental pharmacokinetic analysis. And then clearance (Clm, b) and absolute bioavailability (Fm, b) were calculated by the equations as following: Clm, b (ml/h·kg)=Dose(i.v.)/AUC(i.v.) and Fm, b (%)=AUC(p.o.)·Dose(i.v.)/[AUC(i.v.)·Dose(p.o.)]. Data were expressed mean and standard deviation (S.D.) for each group.
The test system of data set [3] is rat (RIB) or human (HIB) intestinal bacteria. The data set is described as follows: Metabolism of Antrodin C and metabolites by intestinal bacteria in vitro. The data set is classed as in vitro ADME. The procedure:
Mixtures of rat (RIB) or human (HIB) intestinal bacteria (5 g each) prepared as described (Xie L H, et al. 2003 Biol Pharm Bull 51: 378-384), together with Antrodin C (5 mg) dissolved in Tween 20 (0.5 ml), M1 (5 mg) dissolved in water (1.0 ml) or rat bile samples (10 ml) with metabolites M2-M4, which were collected after oral administration of Antrodin C, were added to GAM broth (50 ml), and anaerobically incubated at 37° C. for 3 d. The incubation mixture was extracted with 3 volumes of acetonitrile, and then passed through a 0.45 μm filter. […] Moreover, the metabolites (M2-M4) in bile samples, which were collected after oral administration of Antrodin C in rats, could absolutely transferred to M1 after 30 min incubation.

For data set [4], the system named is LLC cells. The note with it: cited from earlier work.
Data set [5] concerns hepatitis model induced by LPS. The experiment in a line: Hepatitis model induced by LPS. The conditions noted are these: in vivo.
Data set [6] can be described thus: in vivo. The note with it: male, Wistar, rat.
Protocol: as §1, §2, §3
Data set [7] in a line: Conversion of metabolites in bile samples diluted with water and incubated at 37° C. Format: physicochemical. The note with it: bile diluted by same volume water, 37° C. bath for 12 h.
Protocol: as §2

Like-named read-outs stand apart in the source and are kept apart here.

As for `CC(C)=CCOc1ccc(C2=C(CC(C)C)C(=O)N(O)C2=O)cc1` [Antrodin C], the “Metabolites found in feces” value in data set [1] (rat feces after administration of Antrodin C) is listed as “M1-M3, M5 with original Antrodin C”. Also, the “Metabolites found in plasma” value in data set [1] (rat plasma after administration of Antrodin C) is “M1 with another unknown peak”. Also, in data set [1] (rat urine after administration of Antrodin C), the “Metabolites found in urine” value is reported as “neither metabolite nor Antrodin C”. For the same compound, the Accumulated excretion ratio in data set [2] (I.V. 10 mg/kg Antrodin C) is listed as 56.85±13.40; in data set [2] (P.O. 50 mg/kg Antrodin C) it was 5.46±1.62%. Further, in data set [2] (rats), the Main excretion pathway entry is on record as “bile-feces pathway”. In addition, in data set [3], the “Metabolism by intestinal bacteria” value is on record as “converted to M5”. Moreover, in data set [4], the “Cytotoxic activity against LLC cells” value was “confirmed”. The “Effect against hepatitis model induced by LPS” value in data set [5] is recorded as “protective effect”.

For the compound `CC(C)=CCOc1ccc(/C(C(=O)O)=C(\CC(C)C)C(=O)O)cc1` [M1, (2Z)-2-isobutyl-3-{4-[(3-methylbut-2-en-1-yl)oxy]-phenyl}but-2-enedioic acid], in data set [3] (GAM broth, anaerobic incubation at 37° C. for 3 d), the “Metabolism by intestinal bacteria” value was “not metabolized”. The bioavailability in data set [6] was determined as 19.4%. The AUC stood at 1680 µg·h/mL in data set [6] (iv, 10 mg/kg) and 1610 µg·h/mL in data set [6] (po, 50 mg/kg). In data set [6] (iv, 10 mg/kg), the clearance was 5.96 mL/h/kg. For the same compound, the half-life is 0.95 h in data set [6] (po, 50 mg/kg, t1/2 (kα), half-time of absorption phase) and 12.6 h in data set [6] (po, 50 mg/kg, t1/2 (kβ), half-time of elimination phase).

In the case of `COC(=O)/C(=C(/CC(C)C)C(=O)O)c1ccc(OCC=C(C)C)cc1` [M2, (2Z)-2-isobutyl-3-{4-[(3-methylbut-2-en-1-yl)oxy]phenyl}but-2-enedioic acid 4-methyl ester], the “Conversion in diluted bile” value in data set [7] is recorded as “thoroughly converted to M1”.

On to `COC(=O)/C(CC(C)C)=C(\C(=O)O)c1ccc(OCC=C(C)C)cc1` [M3, (2Z)-2-isobutyl-3-{4-[(3-methylbut-2-en-1-yl)oxy]phenyl}but-2-enedioic acid 1-methyl ester], for which the “Conversion in diluted bile” value in data set [7] is given as “thoroughly converted to M1”.

Turning to `CC(C)=CCOc1ccc(C2=C(CC(C)C)C(=O)OC2=O)cc1` [M4, Antrodin A], in data set [7], the “Conversion in diluted bile” value is on record as “thoroughly converted to M1”.

Regarding `CC(C)=CCOc1ccc(C2=C(CC(C)C)C(=O)NC2=O)cc1` [M5, Antrodin B], the “Cytotoxic activity against LLC cells” value in data set [4] is “confirmed”.
